Earlier results, collected in patent EP0271041A2, “Atrial peptide derivatives” (ABBOTT LABORATORIES, priority 1986, dated 1988).
Bridges are numbered along the chain shown (N, C = ends). Where no end group is shown, it is not given here.

Conditions: relative to furosemide

alpha-human atrial natriuretic polypeptide (SLRRSSCFGGRMDRIGAQSGLGCNSFRY; disulfide 7-23 (inferred); ends not checked; UniProt P01160 124-151, looked up) [alpha-hANP, polypeptide consisting of 28 amino acids isolated from human atrium]
diuretic action, times as strong as that of furosemide: about 1000 times
